Like-named read-outs stand apart in the source and are kept apart here.
What was measured:
[1] = target: T1, human 5-HT2A receptor (Homo sapiens, UniProt P28223); assay: Ca2+ mobilization in CHO h5-HT2A cells; type: cell-based; settings: for EC50: Ca2+ mobilization; for Selectivity 5-HT2A/2C (functional): from EC50 values, Table 2; for Emax: relative efficacy, % of response to 5-HT; for times less potent than its 5-methoxytryptamine analog, h5-HT2A functional assay: 3 vs 38, 5 vs 39
T1 construct: expressed in transfected cells; host or cells: CHO (CHO-5-HT2A cell line)

[2] = target: T1, human 5-HT2A receptor; assay: Competition binding to the human 5-HT2A receptor ([3H]ketanserin, CHO-5-HT2A membranes); settings: for Selectivity 5-HT2A/2C (binding): from Ki values, Table 1; for Ki: human receptor, [3H]ketanserin displacement, no unit in the table, nM, read-out: 5-HT2A Ki (in parentheses) (converted); for inhibition at 10 µM: values marked *
[3] = target: T2, human 5-HT2C receptor (Homo sapiens, UniProt P28335); assay: Ca2+ mobilization in HeLa h5-HT2C cells; type: cell-based; settings: for EC50: Ca2+ mobilization, no unit in the table, nM, read-out: 5-HT2C EC50 (in parentheses) (converted); for Emax: HeLa, read-out: 5-HT2C % Emax; for Selectivity 5-HT2C/2A (functional, in parentheses): from EC50 values, Table 2
T2 construct: expressed in transfected cells; host or cells: HeLa (HeLa-5-HT2C cell line)
T2 sequence (P28335 33-458): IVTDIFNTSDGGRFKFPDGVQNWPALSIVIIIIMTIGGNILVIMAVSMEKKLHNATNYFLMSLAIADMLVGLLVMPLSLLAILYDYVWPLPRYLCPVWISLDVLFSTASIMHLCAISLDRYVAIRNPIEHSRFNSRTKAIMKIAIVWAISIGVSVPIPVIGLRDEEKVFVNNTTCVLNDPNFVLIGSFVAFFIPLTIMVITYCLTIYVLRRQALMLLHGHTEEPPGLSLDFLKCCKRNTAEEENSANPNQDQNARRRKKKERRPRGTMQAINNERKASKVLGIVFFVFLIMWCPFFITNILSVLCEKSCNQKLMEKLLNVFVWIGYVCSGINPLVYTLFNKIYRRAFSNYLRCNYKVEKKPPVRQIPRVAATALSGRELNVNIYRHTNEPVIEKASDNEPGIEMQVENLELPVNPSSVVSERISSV

[4] = target: T2, human 5-HT2C receptor; assay: Competition binding to the human 5-HT2C receptor ([3H]mesulergine, HeLa-5-HT2C membranes); settings: for Selectivity 5-HT2C/2A (binding, in parentheses): from Ki values, Table 1; for Ki: human receptor, [3H]mesulergine displacement, no unit in the table, nM, read-out: 5-HT2C Ki (in parentheses) (converted); for inhibition at 10 µM: values marked *
[5] = target: human 5-HT2B receptor (Homo sapiens, UniProt P41595); assay: Competition binding to the human 5-HT2B receptor ([3H]LSD, CHO-5-HT2B membranes)
[6] = no unit in the table, nM, read-out: 5-HT2A EC50 (in parentheses) (converted)

human 5-HT2B receptor, sequence (P41595 whole entry): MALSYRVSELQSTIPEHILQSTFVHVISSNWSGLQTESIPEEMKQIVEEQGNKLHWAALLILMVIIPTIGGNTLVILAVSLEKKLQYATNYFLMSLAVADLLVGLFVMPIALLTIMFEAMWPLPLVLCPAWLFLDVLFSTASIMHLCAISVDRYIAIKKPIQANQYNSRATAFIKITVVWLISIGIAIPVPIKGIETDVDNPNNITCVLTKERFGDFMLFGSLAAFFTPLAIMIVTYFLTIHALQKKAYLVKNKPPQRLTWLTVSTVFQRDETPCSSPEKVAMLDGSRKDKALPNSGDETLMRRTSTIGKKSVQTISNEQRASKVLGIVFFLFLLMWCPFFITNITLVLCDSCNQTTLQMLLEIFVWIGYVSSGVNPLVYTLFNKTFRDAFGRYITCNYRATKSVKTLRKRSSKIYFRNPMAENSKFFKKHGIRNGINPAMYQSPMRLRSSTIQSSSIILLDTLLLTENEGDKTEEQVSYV
T1 sequence (P28223 whole entry): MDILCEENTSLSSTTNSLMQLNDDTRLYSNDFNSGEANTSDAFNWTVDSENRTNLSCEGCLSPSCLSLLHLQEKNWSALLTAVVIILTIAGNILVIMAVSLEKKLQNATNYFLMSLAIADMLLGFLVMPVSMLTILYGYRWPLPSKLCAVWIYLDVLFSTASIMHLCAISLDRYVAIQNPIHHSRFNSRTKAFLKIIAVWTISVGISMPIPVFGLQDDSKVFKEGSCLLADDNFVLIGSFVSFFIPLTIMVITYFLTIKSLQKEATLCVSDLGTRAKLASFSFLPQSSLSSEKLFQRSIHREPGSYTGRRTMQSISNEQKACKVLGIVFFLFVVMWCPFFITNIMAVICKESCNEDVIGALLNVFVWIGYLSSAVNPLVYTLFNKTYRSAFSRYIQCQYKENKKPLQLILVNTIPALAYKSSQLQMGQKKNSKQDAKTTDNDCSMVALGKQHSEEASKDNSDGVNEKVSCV

Structure (SMILES) | EC50 [1, 6] [nM] | Selectivity 5-HT2A/2C (functional) [1] | Emax [1] [%] | Selectivity 5-HT2A/2C (binding) [2] | Ki [2] [nM] | EC50 [3] [nM] | Emax [3] [%] | Selectivity 5-HT2C/2A (functional, in parentheses) [3] | Selectivity 5-HT2C/2A (binding, in parentheses) [4] | Ki [4] [nM] | Ki [5] [nM] | times less potent than its 5-methoxytryptamine analog, h5-HT2A functional assay [1] | EC50 ([1]; pEC50 ± SEM, read-out: 5-HT2A pEC50 (converted)) [nM] | inhibition at 10 µM [2] [%] | inhibition at 10 µM [4] [%]
c1ccc(CNCCc2c[nH]c3ccccc23)cc1 [Compound 1, N-Benzyl-[2-(1H-indol-3-yl)ethyl]amine] | 162 | 0.31 | 61.6 ± 5.17 | 0.75 | 245 | 50.1 | 121 ± 6.58 | 3.24 | 1.33 | 186 | 100 | – | – | – | –
Oc1ccccc1CNCCc1c[nH]c2ccccc12 [Compound 2, N-(2-Hydroxybenzyl)-[2-(1H-indol-3-yl)ethyl]amine] | 200 | 0.17 | 94.1 ± 4.59 | 0.73 | 115 | 33.9 | 85.8 ± 2.83 | 5.89 | 1.37 | 85.1 | 67.6 | – | – | – | –
COc1ccccc1CNCCc1c[nH]c2ccccc12 [Compound 3, N-(2-Methoxybenzyl)-[2-(1H-indol-3-yl)ethyl]amine] | 1550 | 0.023 | 63 ± 1.95 | 2.56 | 89.1 | 35.5 | 94.2 ± 3.75 | 43.7 | 0.39 | 224 | 46.8 | several hundred times less potent | 1550 | – | –
Cc1ccccc1CNCCc1c[nH]c2ccccc12 [Compound 4, N-(2-Methylbenzyl)-[2-(1H-indol-3-yl)ethyl]amine] | 2000 | 0.069 | 44.4 ± 2.79 | – | – | 138 | 107 ± 2.9 | 14.5 | – | 661 | 339 | – | – | 48 ± 1 | –
Clc1ccccc1CNCCc1c[nH]c2ccccc12 [Compound 5, N-(2-Chlorobenzyl)-[2-(1H-indol-3-yl)ethyl]amine] | 468 | 0.42 | 25.5 ± 1.16 | 2.04 | 12 | 195 | 87.1 ± 4.96 | 2.40 | 0.49 | 24.6 | 23.4 | ~40 times | – | – | –
Brc1ccccc1CNCCc1c[nH]c2ccccc12 [Compound 6, N-(2-Bromobenzyl)-[2-(1H-indol-3-yl)ethyl]amine] | 2240 | 0.10 | 29.3 ± 5.93 | 1.74 | 195 | 234 | 109 ± 5.2 | 9.55 | 0.57 | 339 | 74.1 | – | – | – | –
Oc1cccc(CNCCc2c[nH]c3ccccc23)c1 [Compound 7, N-(3-Hydroxybenzyl)-[2-(1H-indol-3-yl)ethyl]amine] | 56.2 | 0.12 | 52.8 ± 4.63 | 0.36 | 75.9 | 6.76 | 96.3 ± 4.02 | 8.32 | 2.8 | 25.7 | 37.1 | – | – | – | –
Cc1cccc(CNCCc2c[nH]c3ccccc23)c1 [Compound 8, N-(3-Methylbenzyl)-[2-(1H-indol-3-yl)ethyl]amine] | 61.7 | 0.48 | 33 ± 2.11 | 5.10 | 14.4 | 29.5 | 82.6 ± 2.11 | 2.09 | 0.20 | 74.1 | 17 | – | – | – | –
Fc1cccc(CNCCc2c[nH]c3ccccc23)c1 [Compound 9, N-(3-Fluorobenzyl)-[2-(1H-indol-3-yl)ethyl]amine] | 389 | 0.29 | 33.8 ± 4.01 | 0.84 | 257 | 112 | 112 ± 4.84 | 3.47 | 1.19 | 214 | 126 | – | – | – | –
Clc1cccc(CNCCc2c[nH]c3ccccc23)c1 [Compound 10, N-(3-Chlorobenzyl)-[2-(1H-indol-3-yl)ethyl]amine] | 120 | 2.34 | 57.9 ± 4.15 | 2.17 | 44.7 | 282 | 117 ± 4.82 | 0.43 | 0.46 | 97.7 | 34.7 | – | – | – | –
Brc1cccc(CNCCc2c[nH]c3ccccc23)c1 [Compound 11, N-(3-Bromobenzyl)-[2-(1H-indol-3-yl)ethyl]amine] | 58.9 | 0.93 | 32.6 ± 1.64 | – | 8.13 | 55 | 107 ± 2.78 | 1.07 | – | 75.9 | 21.9 | – | – | – | –
Oc1ccc(CNCCc2c[nH]c3ccccc23)cc1 [Compound 12, N-(4-Hydroxybenzyl)-[2-(1H-indol-3-yl)ethyl]amine] | – | – | – | 1.09 | 912 | 145 | 99.7 ± 2.81 | – | 0.92 | 1000 | 490 | – | – | – | –
COc1ccc(CNCCc2c[nH]c3ccccc23)cc1 [Compound 13, N-(4-Methoxybenzyl)-[2-(1H-indol-3-yl)ethyl]amine] | 45.7 | – | 108 ± 2.78 | – | 457 | 8.32 | 91.4 ± 2.03 | – | – | 355 | – | – | – | – | –
Cc1ccc(CNCCc2c[nH]c3ccccc23)cc1 [Compound 14, N-(4-Methylbenzyl)-[2-(1H-indol-3-yl)ethyl]amine] | – | – | – | 0.81 | 417 | 1200 | 100 ± 5.36 | – | 1.23 | 331 | 74.1 | – | – | – | –
O=[N+]([O-])c1ccc(CNCCc2c[nH]c3ccccc23)cc1 [Compound 18, N-(4-Nitrobenzyl)-[2-(1H-indol-3-yl)ethyl]amine] | – | – | – | 0.54 | 2630 | 525 | 92 ± 8.69 | – | 1.85 | 1410 | 200 | – | – | – | –
COc1cccc(CNCCc2c[nH]c3ccccc23)c1OC [Compound 20, N-(2,3-Dimethoxybenzyl)-[2-(1H-indol-3-yl)ethyl]amine] | – | – | – | 0.73 | 1510 | 3630 | 117 ± 9.18 | – | 1.37 | 1120 | 195 | – | – | – | –
Oc1ccc(Br)cc1CNCCc1c[nH]c2ccccc12 [Compound 26, N-(5-Bromo-2-hydroxybenzyl)-[2-(1H-indol-3-yl)ethyl]amine] | – | – | – | 2.39 | 309 | 708 | 108 ± 2.88 | – | 0.42 | 724 | – | – | – | – | –
O=[N+]([O-])c1ccc(O)c(CNCCc2c[nH]c3ccccc23)c1 [Compound 30, N-(5-Nitro-2-hydroxybenzyl)-[2-(1H-indol-3-yl)ethyl]amine] | – | – | – | – | – | – | – | – | – | – | 891 | – | – | 8 ± 4 | 31 ± 4
COc1ccc(CNCCc2c[nH]c3ccccc23)c(OC)c1 [Compound 32, N-(2,4-Dimethoxybenzyl)-[2-(1H-indol-3-yl)ethyl]amine] | – | – | – | 0.41 | 661 | 240 | 117 ± 4.59 | – | 2.44 | 269 | 234 | – | – | – | –
Oc1c(Br)cc(Br)cc1CNCCc1c[nH]c2ccccc12 [Compound 35, N-(3,5-Dibromo-2-hydroxybenzyl)-[2-(1H-indol-3-yl)ethyl]amine] | – | – | – | – | – | – | – | – | – | – | 6030 | – | – | 12 ± 4 | 26 ± 4
NCCc1c[nH]c2ccccc12 [Tryptamine] | – | – | 97.6 ± 2.34 | – | – | 1.17 | 108 ± 3.43 | – | – | 95.5 | 110 | – | – | – | –
